# In US9993492B2, “Lysophospholipids and lysophospholipid analogues against honeybee brood diseases” (University of Graz, priority 2013, dated 2018):
# Read-outs that look alike come from different tables or passages of the source.
# Key:
# Paenibacillus larvae = experiment: Antimicrobial assay in BHI liquid medium, vegetative forms of Paenibacillus larvae (MIC); type: cell-based; conditions: for MIC / MIC (ppm): vegetative forms of Pl, liquid medium; for inhibitory / antibacterial activity against Pl (in words): in vitro
# Experimental: For the evaluation of certain fatty acids and phospholipids, overnight cultures of vegetative forms of Pl were used (for results see Table 1.1).
# (§1) As test organisms, several different strains of Paenibacillus larvae were used.
# (§2) Overnight cultures of the vegetative forms of bacteria were prepared in BHI (brain heart infusion) liquid medium.
# From these overnight cultures, an inoculum of 50 μl is added to 1.0 ml of BHI liquid medium to perform the bacterial test in liquid medium. The compound 1-O-oleoyl-sn-glycero-3-phosphocholine (oleoyl-LPC) together with a positive control was then added at concentrations of 2, 5 and 10 ppm and the test tubes were incubated for 24 h at 34.5° C. Then, the extinction of the solution was measured photometrically.
# Melissococcus plutonius = experiment: Antimicrobial assay in liquid Basal Medium against Melissococcus plutonius (MIC); type: cell-based; conditions: for MIC / MIC (ppm): M. pl. in BM liquid medium, OE at 600 nm after 5 days; for inhibitory / antibacterial activity against M. pl. (in words): in vitro
# Experimental: M. pl. was cultured in liquid Basal Medium (BM) for 4 days at 35° C. and from here serial dilutions were carried out to estimate CFU/ml by plating onto BM agar plates. 5 days later CFU were count and concentration was estimated to be 3.46*10^6 CFU/ml. For the antimicrobial assay, an inoculum of 50 μl of the liquid culture is added to 1 mL of BM liquid medium. A set of different substances were tested in different concentrations (2, 5 and 10 ppm) in order to find out their inhibitory effect against M. pl growth. For substances tested, concentration applied and results see table 1.2. Three replicates per substance were included in the experiment. 5 days after the experiment was started OE (optical extinction) was measured at 600 nm.
# honeybee larvae = type: in vivo; conditions: for toxicity to honeybee larvae (footnote b): in vivo; for Ndead larvae total: days 1-7
# Experimental: First instar larvae were transferred into plastic queen cups and fed the following diets: On the first day 10 μL of diet containing 6% glucose, 6% fructose, 1% yeast extract and 50% royal jelly were fed. Test substances (1-O-oleoyl-sn-glycero-3-phosphocholine (oleoyl-LPC), stearic acid, lysophosphatidylinositol and linoleic acid) were added to the first diet in amounts of 0.5 to 10 μg/larvae. For infection with spores of Paenibacillus larvae, larvae were grafted into 5 μL of diet containing test substances and subsequently 5 μL of diet with about 50 added Pl spores were given. Larvae were not fed on the second day to assure the consumption of the given diet. On the third day 20 μL of diet containing 7.5% glucose, 7.5% fructose, 1.5% yeast extract and 50% royal jelly were fed. Amounts of 30, 40 and 60 μL of diet composed of 9% glucose, 9% fructose, 2% yeast extract and 50% royal jelly were fed on the 4th, 5th and 6th day (method modified after Aupinel et al. [Aupinel et al. 2005. Bull Insectol 58:107-111]. Larvae were incubated at 34.5° C. and 95% relative humidity which was reduced to 80% on day 7. The mortality was checked daily for the first 7 days and when individuals emerged from queen cups at day 18 after the transfer into cups. To reduce the time for sporulation of Pl in the lab for security reasons, infection tests with Pl spores were stopped at day 7 with some experiments extend to day 12.
# Larvae were fed according to a slightly modified rearing method of Aupinel et al., (2005). Larvae were fed for 6 days with different amounts of diets which always contained 50% of an aqueous solution (A, B, C) and 50% royal jelly (w/w). The solutions consisted of yeast extract (A=2%, B=3%, C=4%), glucose and fructose (A=12%, B=15%, C=18% each). 50 g portions of royal jelly (purchased from the Styrian school of beekeepers) were freeze stored at −20° C. Once a day all components of the needed diet were mixed freshly, warmed and fed to the larvae with a micro-pipette. On day 1 and 2 each larva was fed with 10 μL of diet A, on day three with 20 μL of diet B, on day four (30 μL), five (40 μL) and six (50 μL) with diet C. This way, each larva was supported with a total amount of 160 μL of food. The test compounds (see Table 4) were added each at the respective concentration on day 1, i.e. stearic acid (10 μg/larva), lysophosphatidylinositol (5 μg/larva), linoleic acid (12 μg/larva) and oleyol-LPC (10 μg/larva). Each larva was checked for its state of health under the binocular before feeding. A larva was defined healthy when movements of spiracles could be observed and it was shiny and plump. Cups with dead larvae were removed from the plate to prevent infections. To avoid microbial contamination, feeding took place under a laminar flow. Larvae were incubated at 34.5° C. and 90% RH. The mortality rates of the larvae are given below in table 4.1.
# [1] = test system: Paenibacillus larvae (Eric II test strain); experiment: Inhibition zone test on Columbia agar; type: cell-based; conditions: amount 30 μg; 24 h, 34.5° C.
# Experimental: as §1, §2
# For the inhibition zone test, 500 μL of overnight culture were added to 15-20 mL of Columbia agar, mixed and poured onto a petri dish. After the agar solidified, either punched wholes are filled with different amounts of test compounds or test compounds are pipetted on paper discs (5 mm Ø). The plate is then incubated for 24 h (34.5° C.) and zones of inhibition are measured and given in mm. Lactic acid and penicillin G were used as positive controls.
# E II—Eric II (test strain of Pl)
# [2] = test system: spores of Paenibacillus larvae; experiment: Spore assay in BHI liquid medium with plating for CFU; type: cell-based; conditions: lowest investigated dose (5 ppm); 114.6±28.4 spores per vial; 4 and 6 days
# Experimental: A stock solution containing spores at a known concentration is used to inoculate c. 100 spores/mL medium. This assay is carried out in 20 mL cultivation tubes containing 1.0 mL of BHI (brain heart infusion) liquid medium. To this medium containing c. […] spores, test compounds are added at different concentrations (e.g., 2, 5 and 10 ppm), together with positive control (penicillin G at 5 ppm) and blank control.
# To verify inoculation with c. 100 spores/mL, tubes containing BHI+spores are plated out immediately on agar plates to assess the number of colony forming units (CFU) after 6 days of incubation at 34.5° C.
# For the control of viability of the spores, the turbidity (due to germination of spores and formation of vegetative forms) of tubes containing BHI+spores is evaluated on day 4.
# For the test probes, bacterial growth is evaluated on day 4 and 6. For those tubes which are negative for bacterial growth, the whole medium (c. 1 mL) is plated onto agar plates and evaluated for CFUs after 2 and 6 days of incubation. CFUs visible after two days result from vegetative forms, while CFUs appearing after […] stem from spores.
# The results of these tests allow identifying whether the tested compounds have an effect on spore germination in liquid medium and the viability of the spores as assessed by their germination on agar plates. […]
# [3] = Paenibacillus larvae, 24 h, read-out: MIC (ppm)
# [4] = Paenibacillus larvae, read-out: MIC
# [5] = Melissococcus plutonius, 120 h, read-out: MIC
# [6] = Melissococcus plutonius, 120 h, read-out: MIC (ppm)
# [7] = linoleic acid 12 μg/larva added on day 1, Nlarvae 48
# [8] = stearic acid 10 μg/larva added on day 1, Nlarvae 96
# [9] = LPI 5 μg/larva added on day 1, Nlarvae 96
Compound,MIC (Paenibacillus larvae; [3]) [µg/mL],MIC (Paenibacillus larvae; [4]) [µM],MIC (Melissococcus plutonius; [5]) [µM],MIC (Melissococcus plutonius; [6]) [µg/mL],inhibitory / antibacterial activity against Pl (in words) (Paenibacillus larvae),inhibitory / antibacterial activity against M. pl. (in words) (Melissococcus plutonius),other results
CCCCC/C=C\C/C=C\CCCCCCCC(=O)O [linoleic acid],0.5,1.8,3.6,1,–,–,toxicity to honeybee larvae (footnote b) (honeybee larvae): ^btoxic to honeybee larvae; Ndead larvae day 1 (honeybee larvae; [7]): 0; Ndead larvae day 2 (honeybee larvae; [7]): 18; Ndead larvae day 3 (honeybee larvae; [7]): 2; Ndead larvae day 4 (honeybee larvae; [7]): 3; Ndead larvae day 5 (honeybee larvae; [7]): 1; Ndead larvae day 6 (honeybee larvae; [7]): 1; Ndead larvae day 7 (honeybee larvae; [7]): 1; Ndead larvae total (honeybee larvae; [7]): 26
CCCCCCCCCCCCCCCCCC(=O)O [stearic acid],> 20,> 70,> 35,> 10,–,–,Ndead larvae day 1 (honeybee larvae; [8]): 0; Ndead larvae day 2 (honeybee larvae; [8]): 0; Ndead larvae day 3 (honeybee larvae; [8]): 1; Ndead larvae day 4 (honeybee larvae; [8]): 0; Ndead larvae day 5 (honeybee larvae; [8]): 1; Ndead larvae day 6 (honeybee larvae; [8]): 3; Ndead larvae day 7 (honeybee larvae; [8]): 1; Ndead larvae total (honeybee larvae; [8]): 6
CCCCCCCC/C=C\CCCCCCCC(=O)O [oleic acid],1,3.5,3.5,1,–,–,toxicity to honeybee larvae (footnote b) (honeybee larvae): ^btoxic to honeybee larvae
CCCCCCCCCCCCCCCC(=O)O [palmitic acid],> 20,> 78,> 40,> 15,–,–,–
CCCCCCCCCCCCCCCCCC(=O)OC[C@@H](O)COP(=O)([O-])OCC[N+](C)(C)C [1-O-stearoyl-sn-glycero-3-phosphocholine],5,> 9.5,> 5.7,3,good in vitro Pl inhibitory activity,–,–
"CC(O)C(=O)O (stereo not shown) [LA (C+), lactic acid]",–,–,–,–,–,–,Inhibition zone (mm) [1]: 5 mm
L-α-lysophosphatidylinositol,–,–,–,–,did not show significant inhibitory activity,did not show significant inhibitory activity,MIC (ppm) (Paenibacillus larvae): >50 ppm; MIC (Paenibacillus larvae; read-out: MIC): >80 µM; MIC (ppm) (Melissococcus plutonius): >10 ppm; MIC (Melissococcus plutonius; read-out: MIC): >15 µM; Ndead larvae day 1 (honeybee larvae; [9]): 0; Ndead larvae day 2 (honeybee larvae; [9]): 0; Ndead larvae day 3 (honeybee larvae; [9]): 0; Ndead larvae day 4 (honeybee larvae; [9]): 0; Ndead larvae day 5 (honeybee larvae; [9]): 1; Ndead larvae day 6 (honeybee larvae; [9]): 1; Ndead larvae day 7 (honeybee larvae; [9]): 2; Ndead larvae total (honeybee larvae; [9]): 4
"CCCCCCCCCCCCCCCCOP(=O)([O-])OCC[N+](C)(C)C [miltefosine, hexadecylphosphocholine]",2 to 5,7.4,4.9,2,good in vitro Pl and M. pl. inhibitory activity,good in vitro Pl and M. pl. inhibitory activity,killing of vegetative forms upon germination of spores [2]: all vegetative forms are killed
"CCCCCCCCCCCCCCCCCCOP(=O)([O-])OC1CC[N+](C)(C)CC1 [perifosine, 1,1-dimethylpiperidinium-4-yl octadecyl phosphate]",2,4.3,4.3,2,good in vitro Pl and M. pl. inhibitory activity,good in vitro Pl and M. pl. inhibitory activity,–
lysophosphatidylcholine,–,–,–,–,–,–,"MIC (ppm) (Paenibacillus larvae): 2-5 ppm; MIC (ppm) (Melissococcus plutonius): 2-5 ppm; larval mortality compared with control group (honeybee larvae; single dose fed on day one, up to 1-2% of fresh body weight of larvae younger than one day, assessed on day 7): no higher mortality than found in the control group"
